Laboratory results reported in patent US9676820B2, “Method for inhibiting proliferation of high LIX1L-expressing tumor cell, and tumor cell proliferation-inhibiting peptide” (National University Corporation Hamamatsu University School …, priority 2013, dated 2017).

Legend:
OCUM-1 strain [1] = assay: Viable cell counts (Trypan blue staining), OCUM-1 strain; format: cell-based; settings: shRNA 2.5 μg/well, vs untreated
Protocol: (§1) Specifically, cells plated such that the density thereof became 1×10^4 cells/3.5 cm well for one plate (6 wells/plate) for each cell strain were cultured for one night in a culture solution having the same composition as those of the culture solutions described in the reference examples. After culturing of 1 well out of the 6 wells was completed, Trypan blue staining was performed on the 1 well, and viable cell counts were counted. The remaining 5 wells were cultured after exchanging the culture solution with a liquid mixture of a Lipofectamine (registered trademark) reagent (12.5 μL/well) and a culture solution (2 mL/well) of which the shRNA concentration became 2.5 μg/well. Then, Trypan blue staining was performed on 1 well 24 hours after the exchange of a culture medium, 1 well 48 hours after the exchange of a culture medium, and the remaining 1 well 72 hours after the exchange of a culture medium, and the viable cell counts were counted. As a control, the viable cell counts were measured (untreated) by performing the culturing similarly to the above except that a culture medium was exchanged with a culture solution to which no shRNA was added.

K562 strain [2] = assay: Viable cell counts (Trypan blue staining), K562 strain; format: cell-based; settings: vs untreated
Protocol: as §1
(§2) Specifically, the viable cell counts were measured after culturing the cells similarly to Example 1 except that a 5 μM culture solution containing a control peptide, a peptide 1, or a peptide 2 was used instead of the culture solution (2 mL/well) of which the shRNA concentration was 2.5 μg/well. The viable cell counts were measured (untreated) by performing the culturing similarly to Example 1 using a culture solution containing no peptide 2, as a control.

HL-60 strain [3] = assay: Viable cell counts (Trypan blue staining), HL-60 strain; format: cell-based; settings: vs untreated
Protocol: as §1, §2

KATO-III strain [4] = assay: Viable cell counts (Trypan blue staining), KATO-III strain; format: cell-based; settings: shRNA 2.5 μg/well, vs untreated
Protocol: as §1

LIX1L genes = assay: RT-PCR of LIX1L gene expression after shRNA treatment; format: cell-based, human; settings: HL-60, K562, KATO-III and OCUM-1 strains; shRNA 2.5 μg/well; after 72 hours
Protocol: In the RT-PCR, first, RNA was extracted and purified from the collected cells using RNeasy Mini Kit (manufactured by QIAGEN). The concentration of total RNA was measured using a spectrophotometer. A reverse transcription reaction was performed using First Strand cDNA Synthesis Kit (manufactured by Roche Life Science) for RT-PCR (AMV), for synthesizing cDNA, in 20 μL of a reaction solution containing 1 μg of total RNA and a random primer for 10 minutes at 25° C., subsequently for 45 minutes at 42° C., and then for 2 minutes at 95° C., to deactivate reverse transcriptase. In all PCRs, TaqMan (registered trademark) polymerase (manufactured by Life Technologies Ltd.) was used. […] The signal intensity of a band of LIX1L in an ethidium bromide staining image was measured using densitometry and a relative value of the signal intensity was calculated. In addition, in all quantitative PCR reactions, SYBR (registered trademark) Green I was used. Quantitative determination was performed in 25 μL of a reaction solution containing the synthesized cDNA and a LIX1L primer using an ABI PRISM 7700 Sequence detector (manufactured by Perkin-Elmer/Applied Biosystems). […]

K562 strain [5] = assay: MTT assay, K562 strain; format: cell-based; settings: 72 hours
Protocol: (§3) Specifically, first, cells plated in a 96-well microplate such that the density thereof became 5×10^3 cells/well were cultured for one night in a culture solution having the same composition as those in the reference examples. Thereafter, the culture solution was exchanged with 100 μL of a culture solution of which the concentration of peptides is 0 μM to 100 μM for culturing for 72 hours. After the culturing, an MTT-containing PBS solution was added to the culture solution, and the mixture was incubated for 4 hours. Then, formazan which was generated by putting 100 μL of isopropanol (containing 34 (v/v) % of hydrochloric acid) into each of the wells was dissolved. The absorbance of each of the wells of the microplate at 570 nm was measured using a microplate reader. As controls, culturing was performed in the same manner except that no peptide was added to the strains, an MTT assay was performed thereon, and the absorbance at 570 nm was measured (untreated).
(§4) Specifically, the cells were cultured for 72 hours similarly to Example 2 except that a peptide to be added to a cell strain was set to peptide 1, 3, or 4, or a control peptide, an MTT assay was performed thereon, and the absorbance at 570 nm was measured.
(§5) In the method for measuring the viable cell counts, cells were cultured for 3 days similarly to Example 1 except that a 25 μM (10 μM for an HL-60 strain, a K562 strain, and a U937 strain) culture solution containing a control peptide or a peptide 1 was used, and the viable cell counts were measured. As a comparison, culturing was performed similarly to the above using a culture solution containing no peptide, and the viable cell counts were measured (untreated).
(§6) In addition, in the method for performing an MTT assay, cells were cultured for 72 hours similarly to Example 2 except that a peptide to be added to a strain was set to a control peptide or a peptide 1 at 25 μM (10 μM for an HL-60 strain, a K562 strain, and a U937 strain), an MTT assay was performed thereon, and the absorbance at 570 nm was measured. As a comparison, culturing was performed similarly to the above using a culture solution containing no peptide, and the MTT assay was performed thereon (untreated).
(§7) Specifically, the cells were cultured for 72 hours similarly to Example 2 except that a peptide to be added to a cell was set to a peptide 1, 2, 5, or 6, MTT assays were performed thereon, and the absorbance at 570 nm was measured. As a comparison, culturing was performed similarly to the above using a culture solution containing no peptide, and the MTT assay was performed thereon (untreated).
as §7, with “that peptides” for “that a peptide”, “to” for “to a”, “cell strains were” for “cell was”, “to peptides 7 to 14,” for “to a peptide 1, 2, 5, or 6,”
Specifically, the cells were cultured for 72 hours similarly to Example 2 except that a peptide to be added to a cell strain was set to a peptide 15 or 16, an MTT assay was performed thereon, and the absorbance at 570 nm was measured. As a comparison, culturing was performed similarly to the above using a culture solution containing no peptide, and the MTT assay was performed thereon (untreated).

KATO-III strain [6] = assay: MTT assay, KATO-III strain; format: cell-based; settings: peptide 0 μM to 100 μM, 72 hours
Protocol: as §3

293 FLG/LIX1L = assay: MTT assay, 293 FLG/LIX1L cells; format: cell-based; settings: 72 hours, peptide concentrations up to 250 μM
Protocol: as §3, with “Thereafter, the culture solution was exchanged with 100 μL of a culture solution of which the concentration of peptides is 0 μM to 100 μM for culturing for 72 hours.” left out
as §5, §6, §7
(§8) Specifically, the cells were cultured for 72 hours similarly to Example 2 except that peptides to be added to cell strains were set to peptides 7 to 14, MTT assays were performed thereon, and the absorbance at 570 nm was measured. […]
(§9) Specifically, the cells were cultured for 72 hours similarly to Example 2 except that a peptide to be added to a cell strain was set to a peptide 15 or 16, an MTT assay was performed thereon, and the absorbance at 570 nm was measured. […]

RPMI8226 strain [7] = assay: Viable cell counts (Trypan blue staining), RPMI8226 strain; format: cell-based; settings: 5 μM peptide, up to 72 hours, vs untreated
Protocol: as §1, with “added. […]” for “added.”

293 FLG = assay: MTT assay, 293 FLG cells; format: cell-based; settings: 72 hours, peptide concentrations up to 250 μM
Protocol: as §3, with “Thereafter, the culture solution was exchanged with 100 μL of a culture solution of which the concentration of peptides is 0 μM to 100 μM for culturing for 72 hours.” left out
as §5, §6, §7, §8, §9

RPMI8226 strain [8] = assay: MTT assay, RPMI8226 strain; format: cell-based; settings: peptide 0 μM to 100 μM, 72 hours
Protocol: as §3, §4

HL-60 strain [9] = assay: MTT assay, HL-60 strain; format: cell-based; settings: peptide 0 μM to 100 μM, 72 hours
Protocol: as §3, §5, §6

OCUM-1 strain [10] = assay: MTT assay, OCUM-1 strain; format: cell-based; settings: peptide 0 μM to 100 μM, 72 hours
Protocol: as §3

NUGC-4 strain = assay: MTT assay, NUGC-4 strain; format: cell-based; settings: 72 hours, peptide concentrations up to 250 μM
Protocol: as §3, with “Thereafter, the culture solution was exchanged with 100 μL of a culture solution of which the concentration of peptides is 0 μM to 100 μM for culturing for 72 hours.” left out
as §5, §6, §7, §8, §9

MKN45 strain = assay: MTT assay, MKN45 strain; format: cell-based; settings: 72 hours, peptide concentrations up to 250 μM
Protocol: as §3, with “Thereafter, the culture solution was exchanged with 100 μL of a culture solution of which the concentration of peptides is 0 μM to 100 μM for culturing for 72 hours.” left out
as §5, §6, §7, §8, §9

[11] = shRNA 2.5 μg/well, after 48 hours and 72 hours
[12] = shRNA 2.5 μg/well, until 24 hours

Substance | viable cell counts (OCUM-1 strain [1]; after 48 hours and 72 hours) | viable cell counts (OCUM-1 strain [1]; until 24 hours) | viable cell counts (K562 strain [2]; [11]) | viable cell counts (K562 strain [2]; [12]) | viable cell counts (HL-60 strain [3]; [11]) | viable cell counts (HL-60 strain [3]; [12]) | viable cell counts (KATO-III strain [4]; after 48 hours and 72 hours) | viable cell counts (KATO-III strain [4]; until 24 hours) | expression of LIX1L genes (RT-PCR) (LIX1L genes) | further results
LIX1L shRNA #1: shRNA with respect to LIX1L genes; base sequence shown in FIG. 5A (DNA GAGGAGGTGTTGGCTCATTATTTTCAAGAGAAATAATGAGCCAACACCTCCTCTTTTTT) | decreased more clearly than that of the untreated cells | no particular difference | decreased more clearly than that of the untreated cells | no particular difference | decreased more clearly than that of the untreated cells | no particular difference | decreased more clearly than that of the untreated cells | no particular difference | hardly observed | 
LIX1L shRNA #2: shRNA with respect to LIX1L genes; base sequence shown in FIG. 5B (DNA GAGTCCCGTGGTGCTGACTTAATTCAAGAGATTAAGTCAGCACCACGGGACTCTTTTTT) | decreased more clearly than that of the untreated cells | no particular difference | decreased more clearly than that of the untreated cells | no particular difference | decreased more clearly than that of the untreated cells | no particular difference | decreased more clearly than that of the untreated cells | no particular difference | hardly observed | 
YGRKKRRQRRR-X-CYVTLPGGSC-NH2 (YGRKKRRQRRRXCYVTLPGGSC; ε-aminocaproic acid linker; C-terminal amide; peptide 2) |  |  |  |  |  |  |  |  |  | cell proliferation (MTT assay, absorbance at 570 nm) (K562 strain [5]; peptide concentrations up to 250 μM): not inhibited; absorbance at 570 nm (MTT assay), influence on cell proliferation (K562 strain [5]; peptide 0 μM to 100 μM): no particular change in the absorbance at 570 nm; viable cell counts (K562 strain [2]; 5 μM peptide, after 72 hours): the same as those in an untreated case; absorbance at 570 nm (MTT assay), influence on cell proliferation (KATO-III strain [6]): no particular change in the absorbance at 570 nm; cell proliferation (MTT assay, absorbance at 570 nm) (293 FLG/LIX1L): not inhibited; viable cell counts (RPMI8226 strain [7]): the same as those in an untreated case; cell proliferation (MTT assay, absorbance at 570 nm) (293 FLG): not inhibited; viable cell counts (HL-60 strain [3]; 5 μM peptide, after 72 hours): the same as those in an untreated case; absorbance at 570 nm (MTT assay), influence on cell proliferation (RPMI8226 strain [8]): no particular change in the absorbance at 570 nm; absorbance at 570 nm (MTT assay), influence on cell proliferation (HL-60 strain [9]): no particular change in the absorbance at 570 nm; absorbance at 570 nm (MTT assay), influence on cell proliferation (OCUM-1 strain [10]): no particular change in the absorbance at 570 nm; cell proliferation (MTT assay, absorbance at 570 nm) (NUGC-4 strain): not inhibited; cell proliferation (MTT assay, absorbance at 570 nm) (MKN45 strain): not inhibited
